According to ChEMBL document CHEMBL4340549, “Design, synthesis and biological evaluation of isochroman-4-one hybrids bearing piperazine moiety as antihypertensive agent candidates” (Bioorg Med Chem, 2019):

Tests used:
[1] = molecular target: T1, Alpha-1D adrenergic receptor (Rattus norvegicus, UniProt P23944); experiment: Antagonist activity at alpha-1D adrenergic receptor in SPF rat vas thoracic aorta assessed as inhibition of noradrenaline-induced contractions; conditions: read-out: pA2 (converted)
T1 sequence (P23944 whole entry): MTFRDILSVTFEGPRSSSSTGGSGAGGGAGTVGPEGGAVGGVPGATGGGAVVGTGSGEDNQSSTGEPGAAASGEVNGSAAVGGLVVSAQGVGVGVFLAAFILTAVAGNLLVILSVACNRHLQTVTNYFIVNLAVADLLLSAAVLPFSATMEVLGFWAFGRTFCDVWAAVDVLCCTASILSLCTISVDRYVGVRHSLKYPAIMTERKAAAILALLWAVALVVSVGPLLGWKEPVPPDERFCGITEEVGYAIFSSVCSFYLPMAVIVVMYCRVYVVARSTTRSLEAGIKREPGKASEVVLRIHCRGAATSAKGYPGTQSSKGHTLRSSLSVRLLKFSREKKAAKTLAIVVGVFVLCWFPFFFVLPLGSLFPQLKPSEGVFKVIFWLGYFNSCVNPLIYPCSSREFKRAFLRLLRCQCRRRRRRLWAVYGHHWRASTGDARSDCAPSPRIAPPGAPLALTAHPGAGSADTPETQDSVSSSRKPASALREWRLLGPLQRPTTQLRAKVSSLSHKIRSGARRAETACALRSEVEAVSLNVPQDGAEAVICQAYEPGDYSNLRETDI

Rattus norvegicus [2] = experiment: Antihypertensive activity in spontaneously hypertensive rat assessed as systolic arterial pressure at 80 mg/kg, po measured after 0 hrs by tail-cuff method (reference value: 186.10 +/- 4.55 mmHg); format: functional
Rattus norvegicus [3] = experiment: Antihypertensive activity in spontaneously hypertensive rat assessed as mean arterial pressure at 80 mg/kg, po measured after 0 hrs by tail-cuff method (reference value: 161.70 +/- 5.12 mmHg); format: functional
Rattus norvegicus [4] = experiment: Antihypertensive activity in spontaneously hypertensive rat assessed as mean arterial pressure at 80 mg/kg, po measured after 1 hr by tail-cuff method (reference value: 160 +/- 9.97 mmHg); format: functional
Rattus norvegicus [5] = experiment: Effect on heart rate in spontaneously hypertensive rat assessed as heart rate level at 80 mg/kg, po measured after 1 hr by tail-cuff method (reference value: 415.25 +/- 14.7 bpm); format: ADME, organism-based; conditions: in vivo
Rattus norvegicus [6] = experiment: Antihypertensive activity in spontaneously hypertensive rat assessed as mean arterial pressure at 80 mg/kg, po measured after 2 hrs by tail-cuff method (reference value: 163 +/- 8.1 mmHg); format: functional
Rattus norvegicus [7] = experiment: Effect on heart rate in spontaneously hypertensive rat assessed as heart rate level at 80 mg/kg, po measured after 2 hrs by tail-cuff method (reference value: 413.2 +/- 15.2 bpm); format: ADME, organism-based; conditions: in vivo
Rattus norvegicus [8] = experiment: Antihypertensive activity in spontaneously hypertensive rat assessed as diastolic arterial pressure at 80 mg/kg, po measured after 8 hrs by tail-cuff method (reference value: 140.61 +/- 10.3 mmHg); format: functional

COc1cc2c(cc1OCC(O)CN1CCN(C(=O)C3CCCO3)CC1)C(=O)C(C)OC2 (stereo not drawn)
Kb [1]: 189 to 195 nM | Activity (Rattus norvegicus [2]): 187.64 mmHg | Activity (Rattus norvegicus [3]): 166.7 mmHg | Activity (Rattus norvegicus [4]): 152.5 mmHg | Activity (Rattus norvegicus [5]): 409.3 bpm | Activity (Rattus norvegicus [6]): 138.17 mmHg | Activity (Rattus norvegicus [7]): 408.14 bpm | Activity (Rattus norvegicus [8]): 141.89 mmHg
